Laboratory results taken from patent US20120251514A1, “MODULATED PROGRAMMED DEATH LIGAND-1” (University Health Network, priority 2009, published 2012).

Tested on: NSG host mice
Experiment: xGVHD model with SHP1/2 inhibitor-treated TEFF cells (Example 16)
Type: in vivo
Conditions: for Tbet+: engrafted human T cells; for Tbet+ / TNF-α / Absolute no. of Foxp3+ T cells expressing IFN-γ / Absolute no. of Foxp3+ T cells expressing IL-2 / Absolute no. of Foxp3+ T cells expressing TNF-α / Absolute no. of Foxp3− T cells expressing IL-2 / Absolute no. of Foxp3− T cells expressing TNF-α: TEFF & PDL1-LV transduced T cells; for Post LPS survival (%): human TEFF cells + monos + TPDL1, inhibitor treatment of Teff 100 μM, LPS day 5; for TNF-α: serum 120 min after LPS; for Absolute no. of Foxp3+ T cells expressing IFN-γ / Absolute no. of Foxp3+ T cells expressing IL-2 / Absolute no. of Foxp3+ T cells expressing TNF-α / Absolute no. of Foxp3− T cells expressing IL-2 / Absolute no. of Foxp3− T cells expressing TNF-α / Absolute no. of Foxp3− T cells expressing IFN-γ: spleen day 6, PMA/ionomycin; for Absolute no. of Foxp3− T cells expressing IFN-γ: TEFF (inhibitor-treated ex vivo where labelled) & PDL1-LV transduced T cells
From the text: Because PD1 receptor signaling occurs via SHP1/2, it was next hypothesized that ex vivo pharmacologic inhibition of this pathway using prevanadate and NSC87877 might also generate TEFF cells (TEFFShp1/2^in) resistant to the tolerizing effect of PDL1. NSG host mice received a combination of human Th1 cells (either unmodified, pervanadate-treated, or NSC87877-treated) and PDL1-LV transduced T cells. At day 6, absolute numbers of human T cells engrafted in the spleen were enumerated. Splenocyes were stimulated (PMA/ionomycin) and the absolute number of Foxp3-negative T cells expressing IFN-γ (i), IL-2 (ii), and TNF-α (iii) were quantified; conversely, […]
Recipients were challenged with LPS and serum was harvested 120 min later for measurement of TNF-α. Absolute numbers of engrafted human T cells expressing T-bet were quantified.
Cohorts of host mice received the human cell inocula specified, followed by LPS administration on day 5 post-transfer for assessment of lethal cytokine-mediated xGVHD.

Molecule	Tbet+	Post LPS survival (%)	TNF-α [µg/mL]	Absolute no. of Foxp3+ T cells expressing IFN-γ	Absolute no. of Foxp3+ T cells expressing IL-2	Absolute no. of Foxp3+ T cells expressing TNF-α	Absolute no. of Foxp3− T cells expressing IL-2	Absolute no. of Foxp3− T cells expressing TNF-α	Absolute no. of Foxp3− T cells expressing IFN-γ
pervanadate	~2.0 ×10^3	33	~0.37	~.3 ×10^3	~1.3 ×10^3	~0.4 ×10^3	~2 ×10^3	~3.9 ×10^3	~1.5 ×10^3
O=S(=O)(O)c1ccc2cc(N=Nc3cc(S(=O)(=O)O)c4cccnc4c3O)ccc2c1 [NSC87877]	~2.7 ×10^3	0	~0.42	~0.1 ×10^3	~1.4 ×10^3	~1.3 ×10^3	~2.6 ×10^3	~6.0 ×10^3	~1.1 ×10^3
